# Where two headings read alike, the source gives them in different places. Starred links: 1 amine or outer side, 2 acyl side, 3 side chain; linkers in the order of their positions; H or OH if unused. Positions of bridges follow the written chain, without caps; N, C: chain ends. Non-standard residues stand in square brackets, D forms with d. Residues, ends and D or L forms follow the SMILES beside them. Groups on a side chain read outwards from the residue. *: point of attachment. Trp(1-CH2CO2Me) = COC(=O)Cn1cc(C[C@H](N)C(=O)O)c2ccccc21; Trp(1-CH2COOH) = N[C@@H](Cc1cn(CC(=O)O)c2ccccc12)C(=O)O; X73 = FC(F)(F)c1cc(NC(=S)*)cc(C(F)(F)F)c1; X18 = O=[N+]([O-])c1ccc(NC(=S)*)c(Cl)c1; X8 = NC(=O)c1c[nH]c2c(NC(=S)*)cccc12; X67 = S=C(Nc1c(Cl)c(Cl)cc(Cl)c1Cl)*; Hyp = O=C(O)[C@@H]1C[C@@H](O)CN1; X10 = S=C(Nc1ccc(N2CCOCC2)cc1)*; X29 = c1ccc(Oc2ccc(N*)cc2)cc1; NMeNle = CCCC[C@H](NC)C(=O)O; 3Abz = Nc1cccc(C(=O)O)c1; NMeA = CN[C@@H](C)C(=O)O; βNA = c1ccc2cc(N*)ccc2c1; Dab = NCC[C@H](N)C(=O)O; X45 = c1ccc2sc(N*)cc2c1; Dap = NC[C@H](N)C(=O)O; CO = O=C([*:1])[*:2]; NHPh = c1ccc(N*)cc1
# Target: T1, PD-1/PD-L1 (Homo sapiens, UniProt Q9NZQ7)
# T1 construct: TVMV protease site linker (C); made in house; host or cells: HEK293T cells
# T1 sequence (Q9NZQ7 18-239): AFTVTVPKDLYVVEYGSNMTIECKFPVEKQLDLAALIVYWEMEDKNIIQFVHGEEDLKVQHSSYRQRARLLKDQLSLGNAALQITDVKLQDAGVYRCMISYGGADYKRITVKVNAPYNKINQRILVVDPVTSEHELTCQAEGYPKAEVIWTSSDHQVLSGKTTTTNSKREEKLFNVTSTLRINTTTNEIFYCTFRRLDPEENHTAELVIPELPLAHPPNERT
# Assay: PD-1/PD-L1 Homogenous Time-Resolved Fluorescence (HTRF) binding assay
# In short: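 HTRF read-out using europium cryptate anti-Ig (1 nM) and APC anti-His (20 nM) on extracellular-domain fusion proteins in dPBS/0.1% BSA/0.05% Tween-20. Inhibitor first incubated 15 min with 10 nM PD-L1-His, followed by 20 nM PD-1-Ig for another 15 min.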
# [1] = PD-L1-His 10 nM pre-incubated with inhibitor, PD-1-Ig 20 nM, read-out: HTRF IC50
SMILES,IC50 [1] [nM],IC50 [nM]
CCCC[C@H]1C(=O)N(C)[C@@H](CCCC)C(=O)N[C@@H](CC(C)C)C(=O)N[C@H](C(=O)NCC(N)=O)CSCC(=O)N[C@@H](Cc2ccc(O)cc2)C(=O)N(C)[C@@H](C)C(=O)N[C@@H](CC(N)=O)C(=O)N2CCC[C@H]2C(=O)N[C@@H](CNC(=S)Nc2c(Cl)c(Cl)cc(Cl)c2Cl)C(=O)N[C@@H](CC(C)C)C(=O)N2C[C@H](O)C[C@H]2C(=O)N[C@@H](Cc2c[nH]c3ccccc23)C(=O)N[C@@H](CCN)C(=O)N[C@@H](Cc2cn(CC(=O)O)c3ccccc23)C(=O)N1C [Example 1110] ({CH2CO}-Y[NMeA]NP[Dap](X67)L[Hyp]W[Dab][Trp(1-CH2COOH)][NMeNle][NMeNle]LCG-NH2; thioether N-14),2,–
CCCC[C@H]1C(=O)N(C)[C@@H](CCCC)C(=O)N[C@@H](CC(C)C)C(=O)N[C@H](C(=O)NCC(N)=O)CSCC(=O)N[C@@H](Cc2ccc(O)cc2)C(=O)N(C)[C@@H](C)C(=O)N[C@@H](CC(N)=O)C(=O)N2CCC[C@H]2C(=O)N[C@@H](CNC(=O)Nc2ccc3ccccc3c2)C(=O)N[C@@H](CC(C)C)C(=O)N2C[C@H](O)C[C@H]2C(=O)N[C@@H](Cc2c[nH]c3ccccc23)C(=O)N[C@@H](CCNC(=O)Nc2ccc3ccccc3c2)C(=O)N[C@@H](Cc2cn(CC(=O)O)c3ccccc23)C(=O)N1C [Example 3001] ({CH2CO}-Y[NMeA]NP[Dap]([CO-βNA])L[Hyp]W[Dab]([CO-βNA])[Trp(1-CH2COOH)][NMeNle][NMeNle]LCG-NH2; thioether N-14),–,7.3
CCCC[C@H]1C(=O)N(C)[C@@H](CCCC)C(=O)N[C@@H](CC(C)C)C(=O)N[C@H](C(=O)NCC(N)=O)CSCC(=O)N[C@@H](Cc2ccc(O)cc2)C(=O)N(C)[C@@H](C)C(=O)N[C@@H](CC(N)=O)C(=O)N2CCC[C@H]2C(=O)N[C@@H](CNC(=O)Nc2cccc(C(=O)OCC)c2)C(=O)N[C@@H](CC(C)C)C(=O)N2C[C@H](O)C[C@H]2C(=O)N[C@@H](Cc2c[nH]c3ccccc23)C(=O)N[C@@H](CCN)C(=O)N[C@@H](Cc2cn(CC(=O)O)c3ccccc23)C(=O)N1C [Example 1078] ({CH2CO}-Y[NMeA]NP[Dap]([CO-3Abz-OEt])L[Hyp]W[Dab][Trp(1-CH2COOH)][NMeNle][NMeNle]LCG-NH2; thioether N-14),4.1,–
CCCC[C@H]1C(=O)N(C)[C@@H](CCCC)C(=O)N[C@@H](CC(C)C)C(=O)N[C@H](C(=O)NCC(N)=O)CSCC(=O)N[C@@H](Cc2ccc(O)cc2)C(=O)N(C)[C@@H](C)C(=O)N[C@@H](CC(N)=O)C(=O)N2CCC[C@H]2C(=O)N[C@@H](CNC(=O)Nc2ccccc2)C(=O)N[C@@H](CC(C)C)C(=O)N2C[C@H](O)C[C@H]2C(=O)N[C@@H](Cc2c[nH]c3ccccc23)C(=O)N[C@@H](CCN)C(=O)N[C@@H](Cc2cn(CC(=O)O)c3ccccc23)C(=O)N1C [Example 1056] ({CH2CO}-Y[NMeA]NP[Dap]([CO-NHPh])L[Hyp]W[Dab][Trp(1-CH2COOH)][NMeNle][NMeNle]LCG-NH2; thioether N-14),3.1,–
CCCC[C@H]1C(=O)N(C)[C@@H](CCCC)C(=O)N[C@@H](CC(C)C)C(=O)N[C@H](C(=O)NCC(N)=O)CSCC(=O)N[C@@H](Cc2ccc(O)cc2)C(=O)N(C)[C@@H](C)C(=O)N[C@@H](CC(N)=O)C(=O)N2CCC[C@H]2C(=O)N[C@@H](CNC(=O)Nc2ccc(Oc3ccccc3)cc2)C(=O)N[C@@H](CC(C)C)C(=O)N2C[C@H](O)C[C@H]2C(=O)N[C@@H](Cc2c[nH]c3ccccc23)C(=O)N[C@@H](CCN)C(=O)N[C@@H](Cc2cn(CC(=O)O)c3ccccc23)C(=O)N1C [Example 1070] ({CH2CO}-Y[NMeA]NP[Dap]([CO-X29])L[Hyp]W[Dab][Trp(1-CH2COOH)][NMeNle][NMeNle]LCG-NH2; thioether N-14),5.5,–
CCCC[C@H]1C(=O)N(C)[C@@H](CCCC)C(=O)N[C@@H](CC(C)C)C(=O)N[C@H](C(=O)NCC(N)=O)CSCC(=O)N[C@@H](Cc2ccc(O)cc2)C(=O)N(C)[C@@H](C)C(=O)N[C@@H](CC(N)=O)C(=O)N2CCC[C@H]2C(=O)N[C@@H](CNC(=S)Nc2ccc(N3CCOCC3)cc2)C(=O)N[C@@H](CC(C)C)C(=O)N2C[C@H](O)C[C@H]2C(=O)N[C@@H](Cc2c[nH]c3ccccc23)C(=O)N[C@@H](CCN)C(=O)N[C@@H](Cc2cn(CC(=O)OC)c3ccccc23)C(=O)N1C [Example 1053] ({CH2CO}-Y[NMeA]NP[Dap](X10)L[Hyp]W[Dab][Trp(1-CH2CO2Me)][NMeNle][NMeNle]LCG-NH2; thioether N-14),3.2,–

# Further lines, with some results ahead:
IC50 [1] [nM],SMILES,IC50 [nM]
3.9,CCCC[C@H]1C(=O)N(C)[C@@H](CCCC)C(=O)N[C@@H](CC(C)C)C(=O)N[C@H](C(=O)NCC(N)=O)CSCC(=O)N[C@@H](Cc2ccc(O)cc2)C(=O)N(C)[C@@H](C)C(=O)N[C@@H](CC(N)=O)C(=O)N2CCC[C@H]2C(=O)N[C@@H](CN)C(=O)N[C@@H](CC(C)C)C(=O)N2C[C@H](O)C[C@H]2C(=O)N[C@@H](Cc2c[nH]c3ccccc23)C(=O)N[C@@H](CCNC(=S)Nc2cccc3c(C(N)=O)c[nH]c23)C(=O)N[C@@H](Cc2cn(CC(=O)O)c3ccccc23)C(=O)N1C [Example 3027] ({CH2CO}-Y[NMeA]NP[Dap]L[Hyp]W[Dab](X8)[Trp(1-CH2COOH)][NMeNle][NMeNle]LCG-NH2; thioether N-14),–
11,CCCC[C@H]1C(=O)N(C)[C@@H](CCCC)C(=O)N[C@@H](CC(C)C)C(=O)N[C@H](C(=O)NCC(N)=O)CSCC(=O)N[C@@H](Cc2ccc(O)cc2)C(=O)N(C)[C@@H](C)C(=O)N[C@@H](CC(N)=O)C(=O)N2CCC[C@H]2C(=O)N[C@@H](CNC(=O)Nc2cc3ccccc3s2)C(=O)N[C@@H](CC(C)C)C(=O)N2C[C@H](O)C[C@H]2C(=O)N[C@@H](Cc2c[nH]c3ccccc23)C(=O)N[C@@H](CCNC(=O)Nc2cc3ccccc3s2)C(=O)N[C@@H](Cc2cn(CC(=O)O)c3ccccc23)C(=O)N1C [Example 3022] ({CH2CO}-Y[NMeA]NP[Dap]([CO-X45])L[Hyp]W[Dab]([CO-X45])[Trp(1-CH2COOH)][NMeNle][NMeNle]LCG-NH2; thioether N-14),–
9,CCCC[C@H]1C(=O)N(C)[C@@H](CCCC)C(=O)N[C@@H](CC(C)C)C(=O)N[C@H](C(=O)NCC(N)=O)CSCC(=O)N[C@@H](Cc2ccc(O)cc2)C(=O)N(C)[C@@H](C)C(=O)N[C@@H](CC(N)=O)C(=O)N2CCC[C@H]2C(=O)N[C@@H](CNC(=S)Nc2ccc([N+](=O)[O-])cc2Cl)C(=O)N[C@@H](CC(C)C)C(=O)N2C[C@H](O)C[C@H]2C(=O)N[C@@H](Cc2c[nH]c3ccccc23)C(=O)N[C@@H](CCN)C(=O)N[C@@H](Cc2cn(CC(=O)O)c3ccccc23)C(=O)N1C [Example 1111] ({CH2CO}-Y[NMeA]NP[Dap](X18)L[Hyp]W[Dab][Trp(1-CH2COOH)][NMeNle][NMeNle]LCG-NH2; thioether N-14),–
87,CCCC[C@H]1C(=O)N(C)[C@@H](CCCC)C(=O)N[C@@H](CC(C)C)C(=O)N[C@H](C(=O)NCC(N)=O)CSCC(=O)N[C@@H](Cc2ccc(O)cc2)C(=O)N(C)[C@@H](C)C(=O)N[C@@H](CC(N)=O)C(=O)N2CCC[C@H]2C(=O)N[C@@H](CNC(=S)Nc2cc(C(F)(F)F)cc(C(F)(F)F)c2)C(=O)N[C@@H](CC(C)C)C(=O)N2C[C@H](O)C[C@H]2C(=O)N[C@@H](Cc2c[nH]c3ccccc23)C(=O)N[C@@H](CCNC(=S)Nc2cc(C(F)(F)F)cc(C(F)(F)F)c2)C(=O)N[C@@H](Cc2cn(CC(=O)O)c3ccccc23)C(=O)N1C [Example 1124] ({CH2CO}-Y[NMeA]NP[Dap](X73)L[Hyp]W[Dab](X73)[Trp(1-CH2COOH)][NMeNle][NMeNle]LCG-NH2; thioether N-14),–

# Reference: US20220389061A1, “IMMUNOMODULATORS” (priority 2019, published 2022)
